{
  "source": "paper PMC7069976",
  "about": "“Improved secretion of glycoproteins using an N-glycan-restricted passport sequence tag recognized by cargo receptor” (Nature Communications, 2020)",
  "key": {"HCT116 cells": {"tested_on": "HCT116 cells", "experiment": "α1-antitrypsin (AAT) secretion level (ELISA) from HCT116 cells", "assay_type": "cell-based", "source_text": "(§1) For expression of the FVIII and FV full-length and deletion mutant proteins in mammalian cells, the codon-optimized FVIII and FV genes were inserted into the p3XFLAG-CMV-14 Expression Vector and p3XFLAG-CMV-9 Expression Vector, respectively (Sigma-Aldrich, St. Louis, MO). For the expression of the wild-type and mutated AAT, EPO, and sFγRIIIa in mammalian cells, the corresponding genes (purchased from FASMAC Co., Ltd., Atsuki, Japan) were inserted into the p3XFLAG-CMV-9 Expression Vector (Sigma-Aldrich).\nHCT116 and its mutated cells as well as HEK293T were maintained in Dulbecco’s modified Eagle’s medium (DMEM) supplemented with 10% fetal bovine serum in 5% CO2 at 37 °C. For complementary DNA (cDNA) transfection, cells were grown overnight and transfected using Polyethylenimine “Max” (Polysciences Inc.) as described previously. Expi293F cells (Thermo Fisher Scientific, Waltham, MA) were maintained in Expi293 Expression Medium (Thermo Fisher Scientific) in 5% CO2 at 37 °C on an orbital shaker platform rotating at 125 r.p.m. For cDNA transfection, cells were transfected with the ExpiFectamine 293 Transfection Kit (Thermo Fisher Scientific Inc.). Protein expression was performed in serum-free medium.\n(§2) The secreted levels of FVIII and FV antigens in the culture medium were determined with an sandwich enzyme-linked immunosorbent assay (ELISA) method using the VisuLize FVIII Antigen Kit (Affinity Biologicals Inc., Ancaster, ON) and the Asssay Max™ Human Factor V ELISA Kit (ASSAYPRO, MO), respectively. The secreted levels of AAT and EPO antigens in the culture medium were determined with an ELASA method using the anti-AAT antibody (Agilent, Santa Clara, CA) and anti-Flag M2 antibody (Sigma-Aldrich), respectively."}, "MCFD2 [1]": {"biological_target": "T1, MCFD2 (Homo sapiens, UniProt Q8NI22)", "T1 construct": "The preparation of ERGIC-53^CRD, MCFD2, and their complexes was performed as previously described; made in house", "T1 sequence (Q8NI22 27-146)": "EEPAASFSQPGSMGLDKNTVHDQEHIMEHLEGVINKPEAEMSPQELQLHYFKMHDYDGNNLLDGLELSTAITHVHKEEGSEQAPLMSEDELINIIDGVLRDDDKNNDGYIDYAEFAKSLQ", "experiment": "NMR chemical shift perturbation of [15N]MCFD2 upon peptide addition", "assay_type": "binding"}, "[2]": {"biological_target": "T2, MCFD2/ERGIC-53^CRD complex (Homo sapiens, UniProt P49257+Q8NI22)", "T2 construct": "made in house", "T2 sequence (Q8NI22 27-146)": "T1 sequence (Q8NI22 27-146)", "T2 sequence (P49257 44-267 partner limits assumed)": "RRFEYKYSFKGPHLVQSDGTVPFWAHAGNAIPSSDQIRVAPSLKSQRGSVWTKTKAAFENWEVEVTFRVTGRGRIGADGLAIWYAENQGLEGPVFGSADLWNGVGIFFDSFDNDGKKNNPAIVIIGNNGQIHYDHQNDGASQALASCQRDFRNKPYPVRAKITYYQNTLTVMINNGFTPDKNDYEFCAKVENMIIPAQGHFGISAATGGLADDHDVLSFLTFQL", "experiment": "NMR titration (peak attenuation) of [15N]FVIII-derived peptide with MCFD2/ERGIC-53CRD", "assay_type": "binding", "protocol": "(§3) The preparation of ERGIC-53^CRD, MCFD2, and their complexes was performed as previously described[16],[18]. FVIII fragment (Asn776–Asp838) was prepared using the protocol described previously. The DNA fragment encoding residues Asn776–Asp838 of FVIII was cloned into the ubiquitin (Ub)-fused pET28a plasmid. The peptide fragment was expressed as a Ub-fused protein in Luria–Bertani broth or M9 minimal medium supplemented with [^15N]NH4Cl and/or [^13C]glucose for NMR experiments. The Ub-fused FVIII peptide was purified with immobilized Ni^2+-affinity chromatography and then digested with Ub carboxyl-terminal hydrolase (YUH1). The resultant peptide was purified by reversed-phase chromatography.\n(§4) NMR measurements were performed using AVANCE 800 and AVANCE 500 spectrometers each equipped with a 5-mm triple-resonance cryogenic probe (Bruker BioSpin, Fallanden, Switzerland). The NMR data were processed and analyzed using TopSpin (Bruker BioSpin) and SPARKY software.\n(§5) The chemical shifts of the FVIII fragment (Asn776–Asp838) were assigned by a standard protocol[18],[25]. To obtain the dissociation constant based on NMR peak attenuation, 0.1 mM [^15N]FVIII fragment was titrated with 0.02–0.3 mM of MCFD2/ERGIC-53^CRD or MCFD2 only in 20 mM 2-(N-morpholino) ethanesulfonic acid (MES; pH 6.0) containing 10 mM CaCl2, 150 mM NaCl, and 10% (v/v) D2O. […]"}, "MCFD2 [3]": {"biological_target": "T1, MCFD2", "experiment": "NMR titration (peak attenuation) of [15N]FVIII-derived peptide with MCFD2 only", "assay_type": "binding", "details": "absence of ERGIC-53CRD, 0.1 mM [15N]FVIII fragment, 0.02–0.3 mM MCFD2, 20 mM MES pH 6.0, 10 mM CaCl2, 150 mM NaCl, 10% D2O, read-out: dissociation constant", "protocol": "as §3, §4, §5"}, "COS-7 cells": {"tested_on": "COS-7 cells", "experiment": "FV secretion level (ELISA) from COS-7 cells", "assay_type": "cell-based", "source_text": "as §1, §2"}, "MCFD2 [4]": {"biological_target": "T1, MCFD2", "details": "Arg44–His56; cited from earlier work"}},
  "data": [
    {"substance": "AAT: human α1-antitrypsin, three N-glycosylation sites", "values": [
      {"measurement": "AAT secretion level, average", "setting": "HCT116 cells; HCT116, Average, n = 3 independent transfections, AAT = 1", "value": 1},
      {"measurement": "AAT secretion level", "setting": "HCT116 cells; HCT116, replicate 1", "value": 1.145},
      {"measurement": "AAT secretion level", "setting": "HCT116 cells; HCT116, replicate 2", "value": 1.033},
      {"measurement": "AAT secretion level", "setting": "HCT116 cells; HCT116, replicate 3", "value": 0.8224}
    ]},
    {"substance": "ATZ-mutant: ATZ-mutant of alpha 1-antitrypsin, with or without C-terminal SDLLMLLRQS motif", "values": [
      {"measurement": "ATZ-mutant secretion with vs without C-terminal motif", "setting": "HCT116 cells; ATZ-mutant of alpha1-antitrypsin, HCT116, ELISA, n = 3", "value": "did not observe significant difference"}
    ]},
    {"substance": "DPPSDLLLLKQSNSSKILVGRWHLASEK", "values": [
      {"measurement": "interaction of FV-derived peptide with MCFD2", "setting": "MCFD2 [1]; two molar equivalents, with vs without ERGIC-53CRD-derived peptide, pH 6.0, 2% DMSO-d6, 303 K", "value": "interacts with the EF-hand helices of MCFD2 in an ERGIC-53^CRD-dependent manner"}
    ]},
    {"substance": "DPPSDLLLLKQSNSSKILVGRWHLASEK [FVIII-derived peptide, FVIII fragment residues Asn776–Asp838, expressed as Ub-fused protein and cleaved with YUH1]", "values": [
      {"measurement": "attenuation of NMR peak intensities upon addition of MCFD2/ERGIC-53CRD", "setting": "[2]; 15N-labeled peptide 0.1 mM, one molar equivalent, pH 6.0, 283 K", "value": "significant attenuation in peak intensities for the region spanning residues 806–819"},
      {"measurement": "Kd", "setting": "[2]; NMR peak attenuation, 0.1 mM [15N]FVIII fragment titrated with 0.02–0.3 mM MCFD2/ERGIC-53CRD, 20 mM MES pH 6.0, 10 mM CaCl2, 150 mM NaCl, 10% D2O, read-out: dissociation constant", "value": 11, "unit": "µM"},
      {"measurement": "Kd", "setting": "MCFD2 [3]", "value": 120, "unit": "µM"},
      {"measurement": "chemical shift changes of MCFD2 induced by FVIII-derived peptide", "setting": "MCFD2 [1]; two molar equivalents of peptide, with vs without five equivalents ERGIC-53CRD-derived tridecapeptide, pH 6.0, 303 K", "value": "markedly enhanced spectral changes in the presence of the ERGIC-53-derived tridecapeptide"}
    ]},
    {"substance": "FV: recombinant wild-type factor V", "values": [
      {"measurement": "FV secretion level (Supplementary Fig. 7B), average", "setting": "COS-7 cells; Average, n = 3, FV = 1", "value": 1},
      {"measurement": "FV secretion level (Supplementary Fig. 7B)", "setting": "COS-7 cells; replicate 1", "value": 1.05},
      {"measurement": "FV secretion level (Supplementary Fig. 7B)", "setting": "COS-7 cells; replicate 2", "value": 0.9799},
      {"measurement": "FV secretion level (Supplementary Fig. 7B)", "setting": "COS-7 cells; replicate 3", "value": 0.9702}
    ]},
    {"substance": "RRFEYKYSFKGPH", "values": [
      {"measurement": "chemical shift changes of MCFD2 induced by ERGIC-53CRD-derived tridecapeptide", "setting": "MCFD2 [4]", "value": "induces widespread chemical shift changes of MCFD2"}
    ]}
  ]
}
